Results on two compounds are retold here after US20160158189A1, “SENSITIZATION OF CANCER CELLS TO APOPTOSIS INDUCTION BY FLAVAGLINES AND 5-HYDROXY-FLAVONES” (DEUTSCHES KREBSFORSCHUNGSZENTRUM, priority 2013, published 2016).

One series relates to Jurkat (J16) cells. As to the kind of experiment: Apoptotic cell death by DNA fragmentation, Jurkat. The format is cell-based, human. As to the method:
(§1) The human malignant cell lines used in this study are the T cell leukemic cell lines CEM, Molt-4 and Jurkat (J16), the HL cell line KM-H2, the cervix adenocarcinoma cell line HeLa, the melanoma cell line A375, the hepatocellular carcinoma cell line HepG2, the pancreatic carcinoma cell line MiaPaca, the breast cancer cell line MCF-7, the prostatic cancer cell line PC3 and the colon carcinoma cell line HCT116. All cells were cultured in RPMI 1640 or DMEM medium (GIBCO laboratories, Grand Island, USA), supplemented with 10% FCS, 100 Units/ml penicillin (GIBCO), 100 μg/m1 streptomycin (GIBCO) and 2 mM L-glutamine (GIBCO) at 37° C. and 5%. Wogonin (BIOTREND Chemicals AG, Wangen, Switzerland), apigenin, chrysin, luteolin and baicalein (Sigma, St. Louis, USA) were solved in dimethyl sulfoxide (DMSO; Roth, Karlsruhe, Germany) at a stock concentration of 50 mM. Cells were treated with different concentrations of different flavones or ABT-263 (Selleck Chemicals, Houston, USA) for 24 to 48 h. Apoptotic cell death was examined by analysis of DNA fragmentation as previously described 23 (Fas et al.,2006, Blood 108: 3700-6). Results are presented as % specific DNA fragmentation using the formula: (percentage of experimental apoptosis-percentage of spontaneous apoptosis)/(100-percentage of spontaneous apoptosis)×100.

Another series concerns CEM cells. Kind of series: Apoptotic cell death by DNA fragmentation, CEM. The format is cell-based, human. The procedure:
as §1

Another series relates to Molt-4 cells. As to the kind of experiment: Apoptotic cell death by DNA fragmentation, Molt-4. The format is cell-based, human. The procedure:
as §1

The subject of another series is melanoma cell line A375. As to the kind of experiment: Apoptotic cell death by DNA fragmentation, A375. Type of series: cell-based, human. The conditions noted are these: ABT-263 plus 50 μM wogonin, 48 h. As to the method: as §1
For series [1], the system named is colon carcinoma cell line HCT116. As to the kind of experiment: Apoptotic cell death by DNA fragmentation, HCT116. The format is cell-based, human. The conditions noted are these: ABT-263 plus 50 μM wogonin, 48 h. As to the method:
as §1

Series [2] deals with hepatocellular carcinoma cell line HepG2. Kind of series: Apoptotic cell death by DNA fragmentation, HepG2. Type of series: cell-based, human. The conditions noted are these: HepG2; ABT-263 plus 50 μM wogonin, 48 h. As to the method: as §1
Series [3] has as its system breast cancer cell line MCF-7. As to the kind of experiment: Apoptotic cell death by DNA fragmentation, MCF-7. Type of series: cell-based, human. The conditions noted are these: ABT-263 plus 50 μM wogonin, 48 h. As to the method:
as §1

Series [4] concerns prostatic cancer cell line PC3. As to the kind of experiment: Apoptotic cell death by DNA fragmentation, PC3. The format is cell-based, human. The conditions noted are these: ABT-263 plus 50 μM wogonin, 48 h. The procedure:
as §1

Series [5] deals with cervix adenocarcinoma cell line HeLa. As to the kind of experiment: Apoptotic cell death by DNA fragmentation, HeLa. The conditions noted are these: ABT-263 plus 50 μM wogonin, 48 h. The format is cell-based, human. As to the method:
as §1

For series [6], the system named is ABT-263-resistant Jurkat (Jurkat-R). As to the kind of experiment: Apoptotic cell death by DNA fragmentation, ABT-263-resistant Jurkat. The format is cell-based, human. The conditions noted are these: Jurkat-R; ABT-263 with wogonin. The procedure:
(§2) Wogonin (BIOTREND Chemicals AG, Wangen, Switzerland), apigenin, chrysin, luteolin and baicalein (Sigma, St. Louis, USA) were solved in dimethyl sulfoxide (DMSO; Roth, Karlsruhe, Germany) at a stock concentration of 50 mM. Cells were treated with different concentrations of different flavones or ABT-263 (Selleck Chemicals, Houston, USA) for 24 to 48 h. Apoptotic cell death was examined by analysis of DNA fragmentation as previously described 23 (Fas et al.,2006, Blood 108: 3700-6). Results are presented as % specific DNA fragmentation using the formula: (percentage of experimental apoptosis-percentage of spontaneous apoptosis)/(100-percentage of spontaneous apoptosis)×100.

Series [7] concerns ABT-263-resistant CEM (CEM-R). Kind of series: Apoptotic cell death by DNA fragmentation, ABT-263-resistant CEM. The conditions noted are these: CEM-R; ABT-263 with wogonin. Type of series: cell-based, human. As to the method:
as §2

Series [8] deals with proliferating normal peripheral blood T cells. As to the kind of experiment: Apoptotic cell death by DNA fragmentation, proliferating normal T cells. Type of series: cell-based. The conditions noted are these: ABT-263 with wogonin, four healthy donors. As to the method:
(§3) Normal T cells were isolated from peripheral blood of healthy donors and activated to proliferate as described in the Materials and Methods. The proliferating T cells were treated with different concentrations of ABT-263 in the absence or presence of wogonin as indicated. Apoptotic cell death was determined by DNA fragmentation. Results are presented as pooled data from four independent donors. (B) Proliferating normal T cells express higher levels of Mcl-1 and Bcl-2 than leukemic Jurkat and Molt-4 T cells. Total cell lysates of activated T cells from three healthy donors were compared with leukemic cells for the expression levels of Mcl-1, Bcl-2, Bcl-xL and Bcl-w. CDK6 is known to be over-expressed in many tumor cells and was used as a marker for malignant cells. Representative blots from two independent experiments are shown. […] Human platelets in 10% FCS were treated with different concentrations of ABT-263 in the absence or presence of wogonin as indicated. After 1 h treatment, apoptotic cell death was determine by staining with annexin V/FITC. Results are average of two independent assays.
Human peripheral blood T cells were prepared as described previously 23 and were more than 90% CD3 positive. For generation of proliferating T cells, freshly isolated T cells were cultured at 2×10^6 cells/ml and were activated with […] PHA overnight. Activated T cells were then washed three times and cultured for additional 5 days in the presence of 25 U/ml IL-2. Platelets were prepared as described in Vogler et al., 2011, Blood 117: 7145-54.
Wogonin (BIOTREND Chemicals AG, Wangen, Switzerland), apigenin, chrysin, luteolin and baicalein (Sigma, St. Louis, USA) were solved in dimethyl sulfoxide (DMSO; Roth, Karlsruhe, Germany) at a stock concentration of 50 mM. Cells were treated with different concentrations of different flavones or ABT-263 (Selleck Chemicals, Houston, USA) for 24 to 48 h. Apoptotic cell death was examined by analysis of DNA fragmentation as previously described 23 (Fas et al.,2006, Blood 108: 3700-6). […]

The test system of a further series is Human platelets. As to the kind of experiment: Platelet apoptotic cell death by annexin V/FITC staining. The format is cell-based. The conditions noted are these: ABT-263 with wogonin, 1 h. The procedure: as §3
Human peripheral blood T cells were prepared as described previously 23 and were more than 90% CD3 positive. For generation of proliferating T cells, freshly isolated T cells were cultured at 2×10^6 cells/ml and were activated with 1 mg/ml PHA overnight. […]

The next series relates to Mcl-1. Kind of series: Western blot analysis of Mcl-1 expression. Type of series: cell-based, human. The source says: (§4) For each sample, 1×10^7 cells were lysed as previously described. 23 Equal amounts of protein were separated on 5-13% SDS-PAGE depending on the molecular sizes of the proteins and blotted onto a nitrocellulose membrane (Amersham Biosciences, Little Chalfon, UK) as previously described. 23 The following antibodies were used: Bad, Bax, Bcl-xL, Bcl-w, XIAP from Cell Signaling Technology, Danvers, USA; Bcl-2 (sc-509) and Mcl-1 (sc-819) from Santa Cruz Biotechnology, Heidelberg, Germany; Tubulin and actin from Sigma, Saint Louis, USA.
For orientation: In western blotting, separated proteins are transferred to a membrane and probed.

Another series relates to CEM tumors. Kind of series: CEM xenograft in immunodeficient mice. The format is in vivo. The conditions noted are these: Rag2-/-/Il2rg-/- mice, s.c. CEM; ABT-263 50 mg/kg p.o. and/or wogonin 50 mg/kg i.p. As to the method:
Immunodeficient mice (Rag2−/−/II2rg−/−) were implanted subcutaneously in the dorsal flank region with CEM (5×10^7 cells). After the tumors reached to approximate 35 mm3, tumor size matched mice were treated with ABT-263 (50 mg/kg, once in each third or fourth day) in the presence or absence of 50 mg/kg wogonin. ABT-263 was formulated according to the protocol previously described 9 and administered p.o. Wogonin dissolved in DMSO was diluted in sunflower oil and administered i.p. For combination studies, ABT-263 was given 2 h before wogonin. The control group was treated in an analogous manner with the vehicle. The tumor size was measured with a micrometer caliper two to three times weekly and the tumor volume (V) was calculated by the formula V=(width2×length)/2. All protocols using and maintaining animals were approved by the German Animal Protection Authority (Office Regierungsprasidium Karlsruhe) in Karlsruhe.

For series [9], the system named is HTLV-1-associated ATL cell line MT-2. As to the kind of experiment: Apoptotic cell death by DNA fragmentation, MT-2. Type of series: cell-based, human. The conditions noted are these: ABT-263 with different concentrations of rocaglamide, 48 h. As to the method: as §2
(§5) To investigate whether rocaglamide could enhance the toxicity of ABT-263 on leukemic cells, leukemic T cell line Jurkat and the HTLV-1-associated ATL cell line MT-2 were treated with indicated amounts of ABT-263 in the absence or presence of different concentration of rocaglamide for 48 h. Apoptotic cell death was determined by DNA fragmentation.

Series [10] deals with caspase-8, caspase-3, PARP. Kind of series: Western blot of caspases and PARP. Type of series: cell-based, human. The conditions noted are these: Jurkat (J16); combination with ABT-263, 24 h.
Text: as §4, §5

The mark [11] stands for this setting: Jurkat 16, ABT-199 with wogonin.
Setting [12] is: ABT-263 plus different concentrations of wogonin, 24 h.
[13] abbreviates: wogonin alone at the concentrations used for combination, 24 h.

Turning to `COc1c(O)cc(O)c2c(=O)cc(-c3ccccc3)oc12` [wogonin, 5,7-dihydroxy-8-methoxy-2-phenyl-4H-chromen-4-one], the “reduction of the ABT-199 dose” value in the series on Jurkat (J16) cells (setting [11]), with CEM cells (ABT-199 with wogonin) and in the series with Molt-4 cells (ABT-199 with wogonin) was “approx. 5 fold” each time. Besides, the “sensitization to ABT-199-mediated apoptosis” value in the series on Jurkat (J16) cells (setting [11]), in the series with CEM cells (ABT-199 with wogonin) and in the series on Molt-4 cells (ABT-199 with wogonin) was “sensitized” throughout. The “effect on killing efficacy of ABT-263” value in the series with Jurkat (J16) cells (Jurkat, ABT-263 plus different concentrations of wogonin, 24 h) is “enhanced the killing efficacy of ABT-263 in a dose-dependent manner”; in the series with CEM cells (setting [12]), “enhanced the killing efficacy of ABT-263 in a dose-dependent manner”; with Molt-4 cells (setting [12]) it was “enhanced the killing efficacy of ABT-263 in a dose-dependent manner”. Besides, the “reduction of ABT-263 dose required for inducing 50-70% cell death” value is recorded as “approximately 10 times” with Jurkat (J16) cells (Jurkat, in presence of wogonin); “approximately 10 times” in the series with CEM cells (in presence of wogonin); “approximately 10 times” with Molt-4 cells (in presence of wogonin). The “cell death by wogonin alone” value in the series on Jurkat (J16) cells (Jurkat, wogonin alone at the concentrations used for combination, 24 h) is “only minimal cell death”; in the series with CEM cells (setting [13]), “only minimal cell death”; in the series with Molt-4 cells (setting [13]), “only minimal cell death”. Also, the “effect on ABT-263-mediated apoptotic cell death” value (in the series on melanoma cell line A375; in series [1]; in [2]; in series [3]; in series [4]; in [5]) was “dose-dependent increase” in each case. Besides, the “re-sensitization to ABT-263-induced apoptotic cell death” value in series [6] and in series [7] was “re-sensitized to ABT-263 treatment” throughout. Moreover, the entries for the “effect on toxicity of ABT-263 to normal proliferating T cells” value in series [8] and in series [8] (listed as Wogonin) were “did not enhance the toxicity of ABT-263” and “does not potentiate the toxicity of ABT-263”, respectively. In addition, the “effect on toxicity of ABT-263 to platelets” value with Human platelets is given as “did not enhance the toxicity of ABT-263”; in the series with Human platelets (listed as Wogonin), “does not enhance the toxicity of ABT-263”. The Mcl-1 expression entry in the series with Mcl-1 (ABT-263-resistant Jurkat and CEM, wogonin) is reported as “significantly inhibited Mcl-1 expression”; with Mcl-1 (CEM, Jurkat and Molt-4, 50 μM wogonin, 8 h), “down-regulation of Mcl-1 expression”; in the series with Mcl-1 (CEM, Jurkat and Molt-4, 50 μM wogonin, 8 h, listed as Wogonin), “down-regulates Mcl-1 expression”; in the series on Mcl-1 (all tumor cell lines tested other than MiaPaca, 50 μM wogonin, 8 h), “down-regulated”. Also, in the series with CEM tumors, the “tumor growth / tumor response” value is reported as “no significant inhibition of tumor growth”.

Turning to `COc1ccc([C@@]23Oc4cc(OC)cc(OC)c4[C@]2(O)[C@H](O)[C@H](C(=O)N(C)C)[C@H]3c2ccccc2)cc1` [rocaglamide, (1R,2R,3S,3aR,8bS)-1,8b-dihydroxy-6,8-dimethoxy-3a-(4-methoxyphenyl)—N,N-dimethyl-3-phenyl-2,3-dihydro-1H-cyclopenta[b][1]benzofuran-2-carboxamide], the “sensitization of ABT-263-induced apoptosis” value was “sensitized by rocaglamide in both leukemic cell lines in a dose-dependent manner” in the series on Jurkat (J16) cells (Jurkat, ABT-263 with different concentrations of rocaglamide, 48 h) and “sensitized by rocaglamide in both leukemic cell lines in a dose-dependent manner” in [9]. The “activities of caspase-8, caspase-3 and PARP cleavage” value in series [10] was “Significant enhancement of activities of caspase-8, caspase-3 and increase in PARP cleavage”.
